Reference: ChEMBL document CHEMBL5120927, “LEGO-Lipophosphonoxins: A Novel Approach in Designing Membrane Targeting Antimicrobials” (J Med Chem, 2022)
Calls of active or inactive are those of the source. The calls are words filed in the database; no cut-off is given here.

What was measured:
Enterococcus faecalis = test: Antibacterial activity against Enterococcus faecalis ATCC 29212 = CCM 4224 assessed as inhibition of bacterial growth incubated for 24 hrs by microdilution assay; format: functional
Staphylococcus aureus [1] = test: Antibacterial activity against Staphylococcus aureus ATCC 29213 = CCM 4223 assessed as inhibition of bacterial growth incubated for 24 hrs by microdilution assay; format: functional
Staphylococcus aureus [2] = test: Antibacterial activity against Staphylococcus aureus ATCC 29213 = CCM 4223 assessed as inhibition of bacterial growth incubated for 24 hrs in presence of BSA by microdilution assay; format: functional
Escherichia coli [3] = test: Antibacterial activity against Escherichia coli ATCC 25922 = CCM 3954 assessed as inhibition of bacterial growth incubated for 24 hrs by microdilution assay; format: functional
Escherichia coli [4] = test: Antibacterial activity against Escherichia coli ATCC 25922 = CCM 3954 assessed as inhibition of bacterial growth incubated for 24 hrs in presence of BSA by microdilution assay; format: functional
[5] = Gradient chromatographic hydrophobicity index of the compound at pH 3.7 by HPLC analysis; format: ADME
[6] = system: Staphylococcus epidermidis; test: Antibacterial activity against Staphylococcus epidermidis CCM 7221 assessed as inhibition of bacterial growth incubated for 24 hrs by microdilution assay; format: functional
Staphylococcus aureus [7] = test: Antibacterial activity against methicillin resistant Staphylococcus aureus 4591/A assessed as reduction in microbial growth incubated for 24 hrs by microdilution assay; format: functional
Escherichia coli [8] = test: Antibacterial activity against multidrug-resistant Escherichia coli CE5556 expressing CTX-M-15 assessed as reduction in microbial growth incubated for 24 hrs by microdilution assay; format: functional
Enterococcus faecium = test: Antibacterial activity against vancomycin resistant Enterococcus faecium 419/ANA assessed as reduction in microbial growth incubated for 24 hrs by microdilution assay; format: functional
Staphylococcus aureus [9] = test: Antibacterial activity against wild type Staphylococcus aureus 4557/A assessed as reduction in microbial growth incubated for 24 hrs by microdilution assay; format: functional
Staphylococcus aureus [10] = test: Antibacterial activity against […] Staphylococcus aureus 4463/A assessed as reduction in microbial growth incubated for 24 hrs by microdilution assay; format: functional
Staphylococcus aureus [11] = test: Antibacterial activity against wild type Staphylococcus aureus 4904/C assessed as reduction in microbial growth incubated for 24 hrs by microdilution assay; format: functional
Staphylococcus aureus [12] = test: Antibacterial activity against wild type Staphylococcus aureus 4883/C assessed as reduction in microbial growth incubated for 24 hrs by microdilution assay; format: functional
Staphylococcus aureus [13] = test: Antibacterial activity against […] Staphylococcus aureus 4460/A assessed as reduction in microbial growth incubated for 24 hrs by microdilution assay; format: functional
Staphylococcus aureus [14] = test: Antibacterial activity against wild type Staphylococcus aureus 4504/A assessed as reduction in microbial growth incubated for 24 hrs by microdilution assay; format: functional
Staphylococcus aureus [15] = test: Antibacterial activity against wild type Staphylococcus aureus 4740/B assessed as reduction in microbial growth incubated for 24 hrs by microdilution assay; format: functional
Staphylococcus aureus [16] = test: Antibacterial activity against wild type Staphylococcus aureus 4717/B assessed as reduction in microbial growth incubated for 24 hrs by microdilution assay; format: functional
Staphylococcus aureus [17] = test: Antibacterial activity against wild type Staphylococcus aureus 4738/B assessed as reduction in microbial growth incubated for 24 hrs by microdilution assay; format: functional
Staphylococcus aureus [18] = test: Antibacterial activity against […] Staphylococcus aureus 4461/A assessed as reduction in microbial growth incubated for 24 hrs by microdilution assay; format: functional
Staphylococcus aureus [19] = test: Antibacterial activity against wild type Staphylococcus aureus 5079/C assessed as reduction in microbial growth incubated for 24 hrs by microdilution assay; format: functional
Staphylococcus aureus [20] = test: Antibacterial activity against wild type Staphylococcus aureus 4788/B assessed as reduction in microbial growth incubated for 24 hrs by microdilution assay; format: functional
Staphylococcus aureus [21] = test: Antibacterial activity against wild type Staphylococcus aureus 78/CF assessed as reduction in microbial growth incubated for 24 hrs by microdilution assay; format: functional
Staphylococcus aureus [22] = test: Antibacterial activity against wild type Staphylococcus aureus 77/CF assessed as reduction in microbial growth incubated for 24 hrs by microdilution assay; format: functional
Staphylococcus aureus [23] = test: Antibacterial activity against wild type Staphylococcus aureus 4561/A assessed as reduction in microbial growth incubated for 24 hrs by microdilution assay; format: functional
Escherichia coli [24] = test: Bactericidal activity against Escherichia coli CCM 3954 assessed as reduction in viable cell count measured after 24 hrs by Time kill assay; format: functional, organism-based; conditions: dose 2-8 mg/L, DDE = dose-dependent effect
Staphylococcus aureus [25] = test: Bactericidal activity against Staphylococcus aureus CCM 4223 assessed as reduction in viable cell count measured after 24 hrs by Time kill assay; format: functional, organism-based; conditions: DDE = dose-dependent effect
Pseudomonas aeruginosa = test: Antibacterial activity against Pseudomonas aeruginosa CCM 3955 persisters assessed as reduction in bacterial cell count at 1 to 10 times MIC incubated for 3 hrs by cell counting method; format: functional, organism-based
Escherichia coli [26] = test: Antibacterial activity against Escherichia coli CCM 3954 persisters assessed as reduction in bacterial cell count at 1 to 10 times MICincubated for 3 hrs by cell counting method; format: functional, organism-based
Staphylococcus aureus [27] = test: Antibacterial activity against Staphylococcus aureus CCM 4223 persisters assessed as reduction in bacterial cell count at 1 to 10 times MIC incubated for 3 hrs by cell counting method; format: functional, organism-based
Cell membrane [28] = test: Induction of cell envelope damage in Staphylococcus aureus assessed as loss of cytoplasmic content at 8 mg/L measured after 8 hrs by scanning electron microscope analysis; format: subcellular
Cell membrane [29] = test: Induction of cell envelope damage in Staphylococcus aureus assessed as tubular structure at 8 mg/L measured after 8 hrs by scanning electron microscope analysis
Cell membrane [30] = test: Induction of plasma membrane depolarization in Escherichia coli CCM 3954 assessed as increase in fluorescence intensity at 2.5 mg/L measured after 80 seconds by DiSC3-5 dye based spectrofluorometer method; format: cell membranes; conditions: time 80.0 sec
Cell membrane [31] = test: Induction of membrane permeabilization in Escherichia coli CCM 3954 assessed as propidium iodide influx measured after 80 mins by spectrofluorometer method; conditions: dose 2.5-5 mg/L, DDE = dose-dependent effect
Cell membrane [32] = test: Induction of plasma membrane depolarization in Staphylococcus aureus assessed as formation of fluctuating unstable pores at 2.5 mg/L; format: cell membranes
Lipid bilayer = test: Induction of membrane disruption of bacterial inner membrane mimic DOPE/DOPG (2:1) large unilamellar vesicles assessed as carboxyfluorescein leakage at 2.5 mg/L measured after 90 mins by spectrofluorometer analysis
[33] = Toxicity in human epidermis model assessed as skin irritation incubated for 42 hrs; format: tissue-based
[34] = Toxicity in human cornea epidermis model assessed as tissue viability pretreated for 1 hr and measured after 42 hrs by MTT assay relative to control; format: tissue-based; conditions: read-out: Activity
[35] = Toxicity in rabbit assessed as skin irritation at 100 to 200 mg/L after administration bandaged for 4 hrs and measured after 1 to 72 hrs of contact time; design: species or system Oryctolagus cuniculus; conditions: in vivo, topical_or_ocular, dose lower 100 mg/L, time lower 1 hrs, dose upper 200 mg/L, time upper 76 hrs
Escherichia coli [36] = test: Antibacterial activity against Escherichia coli CCM 3954 assessed as time to reduce microbial population at 2 mg/L measured by time-kill assay; format: functional
Staphylococcus aureus [37] = test: microbe, parasite or virus in culture; conditions: 4880/C, 24 h
Description: Antibacterial activity against wild type Staphylococcus aureus 4880/C assessed as reduction in microbial growth incubated for 24 hrs by microdilution assay

Staphylococcus aureus [38] = test: microbe, parasite or virus in culture; conditions: 5017/C, 24 h
Description: Antibacterial activity against wild type Staphylococcus aureus 5017/C assessed as reduction in microbial growth incubated for 24 hrs by microdilution assay

## CCCCCCCCOP(=O)(CCN(CCCN)CCCN)OCCCCCCOP(=O)(CCN(CCCN)CCCN)OCCCCCCCC.Cl.Cl.Cl.Cl.Cl.Cl (configuration not stated)
Enterococcus faecalis
  MIC: 1 µg/mL
Staphylococcus aureus [1]
  MIC: 0.5 µg/mL
Staphylococcus aureus [2]
  MIC: 1 µg/mL
Escherichia coli [3]
  MIC: 0.5 µg/mL
Escherichia coli [4]
  MIC: 0.5 µg/mL
[5]
  CHI: 36.9
[6]
  MIC: 0.5 µg/mL
Staphylococcus aureus [7]
  MIC: 1 µg/mL
Escherichia coli [8]
  MIC: 1 µg/mL
Enterococcus faecium
  MIC: 8 µg/mL
Staphylococcus aureus [9]
  MIC: 0.5 µg/mL
Staphylococcus aureus [10]
  MIC: 1 µg/mL
Staphylococcus aureus [11]
  MIC: 0.5 µg/mL
Staphylococcus aureus [12]
  MIC: 1 µg/mL
Staphylococcus aureus [13]
  MIC: 1 µg/mL
Staphylococcus aureus [14]
  MIC: 0.5 µg/mL
Staphylococcus aureus [15]
  MIC: 0.5 µg/mL
Staphylococcus aureus [16]
  MIC: 0.5 µg/mL
Staphylococcus aureus [17]
  MIC: 0.5 µg/mL
Staphylococcus aureus [18]
  MIC: 0.5 µg/mL
Staphylococcus aureus [19]
  MIC: 0.5 µg/mL
Staphylococcus aureus [20]
  MIC: 0.5 µg/mL
Staphylococcus aureus [21]
  MIC: 1 µg/mL
Staphylococcus aureus [22]
  MIC: 0.5 µg/mL
Staphylococcus aureus [23]
  MIC: 0.5 µg/mL
Escherichia coli [24]
  Activity: Dde
Staphylococcus aureus [25]
  Activity: Dde
Pseudomonas aeruginosa
  Activity: Active
Escherichia coli [26]
  Activity: Active
Staphylococcus aureus [27]
  Activity: Active
Cell membrane [28]
  Activity: Active
Cell membrane [29]
  Activity: Active
Cell membrane [30]
  Activity: Active
Cell membrane [31]
  Activity: Dde
Cell membrane [32]
  Activity: Active
Lipid bilayer
  Activity: Active
[33]
  Activity: Non-Toxic
[34]
  viability at 42 h: > 60%
[35]
  Activity: Non-Toxic
Escherichia coli [36]
  Time: 12 h
Staphylococcus aureus [37]
  MIC: 0.5 µg/mL
Staphylococcus aureus [38]
  MIC: 0.5 µg/mL
